Reference: PubChem BioAssay (NCI)
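Values below derive from 48-hour exposures of cells grown in 96-well plates, with endpoints linearly interpolated between the two concentrations bracketing the appropriate inhibition level. TGI marks complete inhibition of growth.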

What was measured:
Assay in all cases: NCI tumour cell line growth inhibition, 48 h
OVCAR-3 ovarian = test system: OVCAR-3 ovarian
HT29 colon = test system: HT29 colon
SF-295 CNS = test system: SF-295 CNS
T-47D breast = test system: T-47D breast
MDA-N = test system: MDA-N
SNB-19 CNS = test system: SNB-19 CNS
MALME-3M melanoma = test system: MALME-3M melanoma
MDA-MB-231 breast = test system: MDA-MB-231 breast
MDA-MB-435 = test system: MDA-MB-435
HCC-2998 colon = test system: HCC-2998 colon
SN12C renal = test system: SN12C renal
UACC-62 melanoma = test system: UACC-62 melanoma
NCI/ADR-RES ovarian = test system: NCI/ADR-RES ovarian
NCI-H226 lung = test system: NCI-H226 lung
COLO 205 colon = test system: COLO 205 colon
NCI-H522 lung = test system: NCI-H522 lung
HOP-92 NSCLC = test system: HOP-92 NSCLC
HOP-62 NSCLC = test system: HOP-62 NSCLC
SK-OV-3 ovarian = test system: SK-OV-3 ovarian
EKVX NSCLC = test system: EKVX NSCLC
RPMI-8226 leukemia = test system: RPMI-8226 leukemia
SK-MEL-28 melanoma = test system: SK-MEL-28 melanoma
HCT-116 colon = test system: HCT-116 colon
A498 renal = test system: A498 renal
UACC-257 melanoma = test system: UACC-257 melanoma
UO-31 renal = test system: UO-31 renal
NCI-H23 lung = test system: NCI-H23 lung
CCRF-CEM leukemia = test system: CCRF-CEM leukemia
MOLT-4 leukemia = test system: MOLT-4 leukemia
786-0 renal = test system: 786-0 renal
MCF7 breast = test system: MCF7 breast
HS 578T breast = test system: HS 578T breast
SR leukemia = test system: SR leukemia
IGROV1 ovarian = test system: IGROV1 ovarian
RXF 393 renal = test system: RXF 393 renal
K-562 leukemia = test system: K-562 leukemia
SK-MEL-5 melanoma = test system: SK-MEL-5 melanoma
CAKI-1 renal = test system: CAKI-1 renal
SW-620 colon = test system: SW-620 colon
SNB-75 CNS = test system: SNB-75 CNS
A549 NSCLC = test system: A549 NSCLC
HCT-15 colon = test system: HCT-15 colon
OVCAR-4 ovarian = test system: OVCAR-4 ovarian
SF-268 CNS = test system: SF-268 CNS
OVCAR-5 ovarian = test system: OVCAR-5 ovarian
PC-3 prostate = test system: PC-3 prostate
KM12 colon = test system: KM12 colon
U251 CNS = test system: U251 CNS
SK-MEL-2 melanoma = test system: SK-MEL-2 melanoma
TK-10 renal = test system: TK-10 renal
SF-539 CNS = test system: SF-539 CNS
NCI-H460 lung = test system: NCI-H460 lung
ACHN renal = test system: ACHN renal
DU-145 prostate = test system: DU-145 prostate
M14 melanoma = test system: M14 melanoma
OVCAR-8 ovarian = test system: OVCAR-8 ovarian
BT-549 breast = test system: BT-549 breast
LOX IMVI melanoma = test system: LOX IMVI melanoma
HL-60(TB) leukemia = test system: HL-60(TB) leukemia

COC(=O)C1=C(C)N2[C@H](C(=O)O)CO[C@@]2(C)[C@H](C(=O)OC)[C@H]1c1cccc([N+](=O)[O-])c1
TGI (OVCAR-3 ovarian): > 100 µM
TGI (HT29 colon): > 100 µM
TGI (SF-295 CNS): > 100 µM
TGI (T-47D breast): > 100 µM
TGI (MDA-N): > 100 µM
TGI (SNB-19 CNS): > 100 µM
TGI (MALME-3M melanoma): > 100 µM
TGI (MDA-MB-231 breast): > 100 µM
TGI (MDA-MB-435): > 100 µM
TGI (HCC-2998 colon): > 100 µM
TGI (SN12C renal): > 100 µM
TGI (UACC-62 melanoma): > 100 µM
TGI (NCI/ADR-RES ovarian): > 100 µM
TGI (NCI-H226 lung): > 100 µM
TGI (COLO 205 colon): > 100 µM
TGI (NCI-H522 lung): > 100 µM
TGI (HOP-92 NSCLC): > 100 µM
TGI (HOP-62 NSCLC): > 100 µM
TGI (SK-OV-3 ovarian): > 100 µM
TGI (EKVX NSCLC): > 100 µM
TGI (RPMI-8226 leukemia): > 100 µM
TGI (SK-MEL-28 melanoma): > 100 µM
TGI (HCT-116 colon): > 100 µM
TGI (A498 renal): > 100 µM
TGI (UACC-257 melanoma): > 100 µM
TGI (UO-31 renal): > 100 µM
TGI (NCI-H23 lung): > 100 µM
TGI (CCRF-CEM leukemia): > 100 µM
TGI (MOLT-4 leukemia): > 100 µM
TGI (786-0 renal): > 100 µM
TGI (MCF7 breast): > 100 µM
TGI (HS 578T breast): > 100 µM
TGI (SR leukemia): > 100 µM
TGI (IGROV1 ovarian): > 100 µM
TGI (RXF 393 renal): > 100 µM
TGI (K-562 leukemia): > 100 µM
TGI (SK-MEL-5 melanoma): > 100 µM
TGI (CAKI-1 renal): > 100 µM
TGI (SW-620 colon): > 100 µM
TGI (SNB-75 CNS): > 100 µM
TGI (A549 NSCLC): > 100 µM
TGI (HCT-15 colon): > 100 µM
TGI (OVCAR-4 ovarian): > 100 µM
TGI (SF-268 CNS): > 100 µM
TGI (OVCAR-5 ovarian): > 100 µM
TGI (PC-3 prostate): > 100 µM
TGI (KM12 colon): > 100 µM
TGI (U251 CNS): > 100 µM
TGI (SK-MEL-2 melanoma): > 100 µM
TGI (TK-10 renal): > 100 µM
TGI (SF-539 CNS): > 100 µM
TGI (NCI-H460 lung): > 100 µM
TGI (ACHN renal): > 100 µM
TGI (DU-145 prostate): > 100 µM
TGI (M14 melanoma): > 100 µM
TGI (OVCAR-8 ovarian): > 100 µM
TGI (BT-549 breast): > 100 µM

CN(C)CCCN1c2ccccc2CCc2ccc([N+](=O)[O-])cc21
TGI (OVCAR-3 ovarian): > 100 µM
TGI (HT29 colon): 46.5 µM
TGI (SF-295 CNS): 34.3 µM
TGI (T-47D breast): 34.1 µM
TGI (MDA-N): 40.9 µM
TGI (SNB-19 CNS): > 100 µM
TGI (MALME-3M melanoma): 35.2 µM
TGI (MDA-MB-231 breast): > 100 µM
TGI (MDA-MB-435): 36 µM
TGI (HCC-2998 colon): 28.5 µM
TGI (SN12C renal): 58 µM
TGI (UACC-62 melanoma): 33.3 µM
TGI (NCI/ADR-RES ovarian): 42.1 µM
TGI (NCI-H226 lung): 90.4 µM
TGI (COLO 205 colon): 32 µM
TGI (NCI-H522 lung): 36.7 µM
TGI (HOP-62 NSCLC): 62.9 µM
TGI (SK-OV-3 ovarian): > 100 µM
TGI (EKVX NSCLC): > 100 µM
TGI (RPMI-8226 leukemia): > 100 µM
TGI (SK-MEL-28 melanoma): 77.9 µM
TGI (HCT-116 colon): > 100 µM
TGI (A498 renal): 40.3 µM
TGI (UACC-257 melanoma): 31.8 µM
TGI (UO-31 renal): 76 µM
TGI (NCI-H23 lung): > 100 µM
TGI (CCRF-CEM leukemia): > 100 µM
TGI (MOLT-4 leukemia): > 100 µM
TGI (786-0 renal): > 100 µM
TGI (MCF7 breast): 34.1 µM
TGI (HS 578T breast): > 100 µM
TGI (SR leukemia): > 100 µM
TGI (LOX IMVI melanoma): 31.5 µM
TGI (IGROV1 ovarian): 31 µM
TGI (K-562 leukemia): > 100 µM
TGI (HL-60(TB) leukemia): 75.6 µM
TGI (SK-MEL-5 melanoma): 31.4 µM
TGI (CAKI-1 renal): > 100 µM
TGI (SW-620 colon): > 100 µM
TGI (A549 NSCLC): > 100 µM
TGI (HCT-15 colon): 57.7 µM
TGI (OVCAR-4 ovarian): > 100 µM
TGI (SF-268 CNS): > 100 µM
TGI (OVCAR-5 ovarian): > 100 µM
TGI (PC-3 prostate): > 100 µM
TGI (KM12 colon): 33.8 µM
TGI (U251 CNS): > 100 µM
TGI (SK-MEL-2 melanoma): 43.9 µM
TGI (TK-10 renal): 41.8 µM
TGI (NCI-H460 lung): 42.3 µM
TGI (ACHN renal): > 100 µM
TGI (DU-145 prostate): 38.6 µM
TGI (M14 melanoma): 30.6 µM
TGI (OVCAR-8 ovarian): > 100 µM
TGI (BT-549 breast): 73.7 µM
